Test results reported in patent US12145914B2, “Compound having oxadiazole and pharmaceutical composition containing the same” (SK BIOPHARMACEUTICALS CO., LTD., priority 2018, dated 2024).

Test system: focal onset seizures induced by electrostimulation of 44 mA, 6 Hz, 3 sec in ICR mouse
Assay: 6 Hz method for screening anticonvulsants (6 Hz, 44 mA electrostimulation)
Assay type: in vivo
Settings: male ICR mice, intraperitoneal (ip), electrostimulation 44 mA, 3 sec to the eye, number of non-seizure animals/number of animals used
Source text: The utility of the compounds according to the present invention as an anticonvulsant agent has been investigated by the 6 Hz method, which has been well established as pharmacological screening methods of convulsant agents for focal onset seizures. The procedure of the 6 Hz method for screening anticonvulsant was as follows:
1) Preparation of Experimental Animals
Male ICR mice are purchased from Orient Bio, Inc. of Korea, and are stored and managed according to laboratory animal management standards of the Institutional Animal Care and Use Committee (IACUC) by putting the same in a wire net cage under an environment in which an ambient temperature of 19 to 25° C., 40 to 60% relative humidity and 12 hour periods of light/dark were auto-controlled, and water was freely taken. After stabilization for a week, mice with a body weight of 18 to 23 g were used in the experiment.
2) Evaluation of the Anticonvulsant Effect of a Compound
5% Tetracaine (Sigma) was added to both eyes to provide a local anesthetic effect at 5 to 10 minutes before the period of electrical stimulation at the animal ICR mouse. The compounds to be tested were dissolved in distilled water in which 30% polyethylene glycol 300+5% dimethylsulfoxide+5% Cremophor was dissolved and administered intraperitoneally (ip) to the animal at a dosage volume of 10 mL/kg. Then, electrostimulation of 44 mA, 6 Hz, and 3 sec was applied to the eye to induce focus-generating seizures. After the electrical stimulation, the presence of seizures due to drug effects was confirmed, and the ratio of animals showing no seizures was expressed as a protection rate (the number of non-seizure animals/the number of animals used in experiments=protection rate). […]

In the case of `Cc1nnc(CC(OC(N)=O)c2cccc(-c3ccc(OC(F)(F)F)cc3)c2)o1` (centres unmarked) [Example 78, [1-[3-[4-(trifluoromethoxy)phenyl]phenyl]-2-(5-methyl-1,3,4-oxadiazol-2-yl)ethyl] carbamate], the “6 Hz, 44 mA protection rate” value is reported as “++ (0.6 to 0.8 are scored as ‘++’)”.

For `Cc1nnc(CC(OC(N)=O)c2cccc(-c3ccc(Cl)cc3)c2)o1` (centres unmarked) [Example 75, [1-[3-(4-chlorophenyl)phenyl]-2-(5-methyl-1,3,4-oxadiazole-2-yl)ethyl] carbamate], the “6 Hz, 44 mA protection rate” value was “+ (0.2 to 0.6 are scored as ‘+’)”.

With `Cc1nnc(CC(OC(N)=O)c2cccc(-c3ccc(C(F)(F)F)cc3)c2)o1` (centres unmarked) [Example 7, [2-(5-methyl-1,3,4-oxadiazol-2-yl)-1-[3-[4-(trifluoromethyl)phenyl]phenyl]ethyl]carbamate] the “6 Hz, 44 mA protection rate” value was “++ (0.6 to 0.8 are scored as ‘++’)”.

In the case of `OC(Cc1nnco1)c1cc(-c2ccc(C(F)(F)F)cc2)ccc1F` (centres unmarked) [Example 5, 1-[2-fluoro-5-[4-(trifluoromethyl)phenyl]phenyl]-2-(1,3,4-oxadiazol-2-yl)ethanol], the “6 Hz, 44 mA protection rate” value is reported as “+ (0.2 to 0.6 are scored as ‘+’)”.

`OC(Cc1nnco1)c1cc(OCCCC(F)(F)F)ccc1F` (centres unmarked) [Example 23, 1-[2-fluoro-5-(4,4,4-trifluorobutoxy)phenyl]-2-(1,3,4-oxadiazol-2-yl)ethanol] was tested, and the “6 Hz, 44 mA protection rate” value was “+ (0.2 to 0.6 are scored as ‘+’)”.

`CCCCOc1ccc(F)c(C(Cc2nnc(C)o2)OC(N)=O)c1` (centres unmarked) [Example 22, [1-(5-butoxy-2-fluoro-phenyl)-2-(5-methyl-1,3,4-oxadiazol-2-yl)ethyl] carbamate] was tested, and the “6 Hz, 44 mA protection rate” value was “+ (0.2 to 0.6 are scored as ‘+’)”.

For `CCc1nnc(CC(O)c2cccc(-c3ccc(C(F)(F)F)cc3)c2)o1` (centres unmarked) [Example 53, 2-(5-ethyl-1,3,4-oxadiazol-2-yl)-1-[3-[4-(trifluoromethyl)phenyl]phenyl]ethanol], the “6 Hz, 44 mA protection rate” value was “+ (0.2 to 0.6 are scored as ‘+’)”.

`NC(=O)OC(Cc1nnco1)c1cc(-c2ccc(C(F)(F)F)cc2)ccc1Cl` (centres unmarked) [Example 51, [1-[2-chloro-5-[4-(trifluoromethyl)phenyl]phenyl]-2-(1,3,4-oxadiazol-2-yl)ethyl]carbamate] was tested, and the “6 Hz, 44 mA protection rate” value was “+ (0.2 to 0.6 are scored as ‘+’)”.

For `CC1(C)O[C@@H]2[C@@H](CO[C@@]3(COS(N)(=O)=O)OC(C)(C)O[C@@H]23)O1` [Topiramate, reference compound], the “6 Hz, 44 mA protection rate” value was “− (the protection rates 0 to 0.2 are scored as ‘−’)”.

With `CC(=O)OC(Cc1nnc(C)o1)c1cccc(-c2ccc(C(F)(F)F)cc2)c1` (centres unmarked) [Example 55, [2-(5-methyl-1,3,4-oxadiazol-2-yl)-1-[3-[4-(trifluoromethyl)phenyl]phenyl]ethyl]acetate] the “6 Hz, 44 mA protection rate” value was “+ (0.2 to 0.6 are scored as ‘+’)”.

For `Cc1nnc(CC(O)c2cc(OCCCC(F)(F)F)ccc2Cl)o1` (centres unmarked) [Example 39, 1-[2-chloro-5-(4,4,4-trifluorobutoxy)phenyl]-2-(5-methyl-1,3,4-oxadiazol-2-yl)ethanol], the “6 Hz, 44 mA protection rate” value was “+ (0.2 to 0.6 are scored as ‘+’)”.

With `Cc1nnc(CC(O)c2cc(CCC(F)(F)F)ccc2F)o1` (centres unmarked) [Example 10, 1-[2-fluoro-5-(3,3,3-trifluoropropyl)phenyl]-2-(5-methyl-1,3,4-oxadiazol-2-yl)ethanol] the “6 Hz, 44 mA protection rate” value was “+ (0.2 to 0.6 are scored as ‘+’)”.

`Nc1nnc(-c2cccc(Cl)c2Cl)c(N)n1` [Lamotrigine, reference compound] was tested, and the “6 Hz, 44 mA protection rate” value was “− (the protection rates 0 to 0.2 are scored as ‘−’)”.

With `Cc1nnc(CC(O)c2cc(CCCCC(F)(F)F)ccc2F)o1` (centres unmarked) [Example 32, 1-[2-fluoro-5-(5,5,5-trifluoropentyl)-phenyl]-2-(5-methyl-1,3,4-oxadiazol-2-yl)ethanol] the “6 Hz, 44 mA protection rate” value was “+ (0.2 to 0.6 are scored as ‘+’)”.

With `Cc1nnc(CC(O)c2cc(-c3ccc(C(F)(F)F)cc3)ccc2F)o1` (centres unmarked) [Example 2, 1-[2-fluoro-5-[4-(trifluoromethyl)phenyl]phenyl]-2-(5-methyl-1,3,4-oxadiazol-2-yl)ethanol] the “6 Hz, 44 mA protection rate” value was “++ (0.6 to 0.8 are scored as ‘++’)”.

For `CCCCCc1ccc(F)c(C(Cc2nnc(C)o2)OC(N)=O)c1` (centres unmarked) [Example 28, [1-(2-fluoro-5-pentyl-phenyl)-2-(5-methyl-1,3,4-oxadiazol-2-yl)ethyl] carbamate], the “6 Hz, 44 mA protection rate” value was “++ (0.6 to 0.8 are scored as ‘++’)”.

In the case of `Cc1nnc(CC(O)c2cc(OCC(F)(F)F)ccc2F)o1` (centres unmarked) [Example 17, 1-[2-fluoro-5-(2,2,2-trifluoroethoxy)phenyl]-2-(5-methyl-1,3,4-oxadiazol-2-yl)ethanol], the “6 Hz, 44 mA protection rate” value is reported as “+ (0.2 to 0.6 are scored as ‘+’)”.

For `Cc1nnc(CC(O)c2cc(-c3ccc(C(F)(F)F)cc3)ccc2Cl)o1` (centres unmarked) [Example 48, 1-[2-chloro-5-[4-(trifluoromethyl)phenyl]phenyl]-2-(5-methyl-1,3,4-oxadiazol-2-yl)ethanol], the “6 Hz, 44 mA protection rate” value was “++ (0.6 to 0.8 are scored as ‘++’)”.

In the case of `Cc1nnc(CC(O)c2cc(-c3ccc(Cl)cc3)ccc2F)o1` (centres unmarked) [Example 1, 1-[5-(4-chlorophenyl)-2-fluoro-phenyl]-2-(5-methyl-1,3,4-oxadiazol-2-yl)ethanol], the “6 Hz, 44 mA protection rate” value is reported as “++ (0.6 to 0.8 are scored as ‘++’)”.

With `Cc1nnc(CC(OC(N)=O)c2cc(CCCCC(F)(F)F)ccc2F)o1` (centres unmarked) [Example 34, [1-[2-fluoro-5-(5,5,5-trifluoropentyl)phenyl]-2-(5-methyl-1,3,4-oxadiazol-2-yl)ethyl] carbamate] the “6 Hz, 44 mA protection rate” value was “++ (0.6 to 0.8 are scored as ‘++’)”.

`Cc1nnc(CC(O)c2cccc(-c3ccc(OC(F)(F)F)cc3)c2)o1` (centres unmarked) [Example 59, 2-(5-methyl-1,3,4-oxadiazol-2-yl)-1-[3-[4-(trifluoromethoxy)phenyl]phenyl]ethanol] was tested, and the “6 Hz, 44 mA protection rate” value was “++ (0.6 to 0.8 are scored as ‘++’)”.

For `COc1ccc(-c2ccc(C(F)(F)F)cc2)cc1C(O)Cc1nnc(C)o1` (centres unmarked) [Example 43, 1-[2-methoxy-5-[4-(trifluoromethyl)phenyl]phenyl]-2-(5-methyl-1,3,4-oxadiazol-2-yl)ethanol], the “6 Hz, 44 mA protection rate” value was “+ (0.2 to 0.6 are scored as ‘+’)”.

`Cc1nnc(CC(OC(N)=O)c2cccc(OCCCC(F)(F)F)c2)o1` (centres unmarked) [Example 20, [2-(5-methyl-1,3,4-oxadiazol-2-yl)-1-[3-(4,4,4-trifluorobutoxy)phenyl]ethyl] carbamate] was tested, and the “6 Hz, 44 mA protection rate” value was “+ (0.2 to 0.6 are scored as ‘+’)”.

With `Cc1nnc(CC(O)c2cccc(-c3ccc(Cl)cc3)c2)o1` (centres unmarked) [Example 65, 1-[3-(4-chlorophenyl)phenyl]-2-(5-methyl-1,3,4-oxadiazol-2-yl)ethanol] the “6 Hz, 44 mA protection rate” value was “++ (0.6 to 0.8 are scored as ‘++’)”.

In the case of `Cc1nnc(CC(OC(N)=O)c2cc(CCCC(F)(F)F)ccc2F)o1` (centres unmarked) [Example 33, [1-[2-fluoro-5-(4,4,4-trifluorobutyl)phenyl]-2-(5-methyl-1,3,4-oxadiazol-2-yl)ethyl] carbamate], the “6 Hz, 44 mA protection rate” value is reported as “+ (0.2 to 0.6 are scored as ‘+’)”.

With `Cc1nnc(CC(OC(N)=O)c2cc(CCC(F)(F)F)ccc2F)o1` (centres unmarked) [Example 11, [1-[2-fluoro-5-(3,3,3-trifluoropropyl)phenyl]-2-(5-methyl-1,3,4-oxadiazol-2-yl)ethyl] carbamate] the “6 Hz, 44 mA protection rate” value was “+ (0.2 to 0.6 are scored as ‘+’)”.
